Each structure is given as a SMILES string. Bounds are passed on as bounds.

For data set [1], the system named is HBV. Put plainly: Test of anti HBV activity in vitro (viral DNA by qPCR). Type of data set: cell-based. The following applies: Hepatitis B virus; HepG2.2.15 cells, viral DNA in cell culture supernatant by qPCR; read-out: EC50 values of the compound of the invention on viral replication. A digest of the protocol: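 HepG2.2.15 cells (integrated HBV genome) were grown to confluence, then treated with compound in 4-fold dilutions from 4 μM final (0.5% DMSO). Secreted viral DNA in supernatant was quantified by SYBR qPCR against an HBV plasmid standard curve; EC50 from four-parameter nonlinear regression of concentration versus copy number.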

Data set [2] can be described thus: Cytotoxicity test with CellTiter Glo. Type of data set: cell-based. The following applies: human, HepG2.2.15 cells, highest concentration 150 μM, read-out: CC50 values of the compounds of the invention. How it is done:
Test 2: Cytotoxicity and Selectivity Index
Methods of Testing Cytotoxicity and Selectivity Index
The serial diluted compound was added to a 384 wells plate at 50 μL HepG2.2.15 cell per well (3000 cells per well), the highest final concentration in the experiment is 150 μM (200 fold dilution). The plate was cultured at 37° C. in an incubator with CO2 for 4 days, and cytotoxicity of the compound was detected using CellTiter Glo agent.
The cytotoxicity of the compound was calculated using the following formulate, cytotoxicity (%)=100−(detection value/mean of DMSO control wells values×100) CC50 values were calculated by a four parametric nonlinear regression model using Graphpad Prism 5 software to manage concentration−cytotoxicity (%).

`COC(=O)C1=C(CN2CCN3C(=O)N(c4nc(-c5ccc(C(=O)O)cc5F)cs4)C[C@@H]3C2)NC(c2nccs2)=N[C@H]1c1ccc(F)cc1Cl` [Example 136, 4-(2-((S)-7-(((R)-6-(2-chloro-4-fluorophenyl)-5-(methoxycarbonyl)-2-(thiazol-2-yl)-3,6-dihydropyrimidin-4-yl)methyl)-3-oxohexahydroimidazo[1,5-a]pyrazin-2(3H)-yl)thiazol-4-yl)-3-fluorobenzoic acid]: the EC50 in data set [1] worked out at 20.1 nM. The cytotoxic concentration (CC50) at 4 days in data set [2] is over 150000 nM.

As to `COC(=O)C1=C(CN2CCN3C(=O)N(CC#Cc4ccc(S(C)(=O)=O)cc4)C[C@@H]3C2)NC(c2nccs2)=N[C@H]1c1ccc(F)cc1Cl` [Example 41, (R)-methyl 4-(2-chloro-4-fluorophenyl)-6-(((S)-2-(3-(4-(methylsulfonyl)phenyl)-2-propyn-1-yl)-3-oxohexahydroimidazo[1,5-a]pyrazin-7(1H)-yl)methyl)-2-(thiazol-2-yl)-1,4-dihydropyrimidine-5-carboxylate], the EC50 in data set [1] is 5.1 nM. In addition, in data set [2], the CC50 at 4 days was over 150000 nM.

Regarding `COC(=O)C1=C(CN2CCN3C(=O)N(c4ccc(Oc5ccc(C(=O)N6CC(O)C6)cc5)cc4)C[C@@H]3C2)NC(c2nccs2)=N[C@H]1c1ccc(F)cc1Cl` [Example 61, (R)-methyl 4-(2-chloro-4-fluorophenyl)-6-(((S)-2-(4-(4-(3-hydroxyazetidine-1-carbonyl)phenoxy)phenyl)-3-oxohexahydroimidazo[1,5-a]pyrazin-7(1H)-yl)methyl)-2-(thiazol-2-yl)-1,4-dihydropyrimidine-5-carboxylate], the EC50 in data set [1] came out at 15 nM. Moreover, the CC50 at 4 days in data set [2] was over 150000 nM.

With `COC(=O)C1=C(CN2CCN3C(=O)N(c4nc(-c5cc(F)cc(C(=O)O)c5)cs4)C[C@@H]3C2)NC(c2nccs2)=N[C@H]1c1ccc(F)cc1Cl` [Example 138, 3-(2-((S)-7-(((R)-6-(2-chloro-4-fluorophenyl)-5-(methoxycarbonyl)-2-(thiazol-2-yl)-3,6-dihydropyrimidin-4-yl)methyl)-3-oxohexahydroimidazo[1,5-a]pyrazin-2(3H)-yl)thiazol-4-yl)-5-fluorobenzoic acid], in data set [1], the concentration giving a half-maximal response (EC50) is 34 nM. In addition, the CC50 at 4 days in data set [2] was over 150000 nM.

`COC(=O)C1=C(CN2CCN3C(=O)N(c4ccc(Oc5ccc(C(=O)N6CCOCC6)cc5)cc4)C[C@@H]3C2)NC(c2nccs2)=N[C@H]1c1ccc(F)cc1Cl` [Example 56, (R)-methyl 4-(2-chloro-4-fluorophenyl)-6-(((S)-2-(4-(4-(morpholine-4-carbonyl)phenoxy)phenyl)-3-oxohexahydroimidazo[1,5-a]pyrazin-7(1H)-yl)methyl)-2-(thiazol-2-yl)-1,4-dihydropyrimidine-5-carboxylate]: the EC50 in data set [1] came to 12.4 nM. Further, the half-maximal cytotoxic concentration (CC50) at 4 days in data set [2] was over 150000 nM.

As to `COC(=O)C1=C(CN2CCN3C(=O)N(c4ccc(Sc5ccc(C(=O)O)cc5)cc4)C[C@@H]3C2)NC(c2nccs2)=N[C@H]1c1ccc(F)cc1Cl` [Example 91, 4-((4-((S)-7-(((R)-6-(2-chloro-4-fluorophenyl)-5-(methoxycarbonyl)-2-(thiazol-2-yl)-3,6-dihydropyrimidin-4-yl)methyl)-3-oxohexahydroimidazo[1,5-a]pyrazin-2(3H)-yl)phenyl)thio)benzoic acid], in data set [1], the concentration for a half-maximal effect (EC50) stood at 37.7 nM. Besides, the CC50 at 4 days in data set [2] is over 150000 nM.

As to `COC(=O)C1=C(CN2CCN3C(=O)N(c4ccc(Oc5ccc(OC)cc5)cc4)C[C@@H]3C2)NC(c2nccs2)=N[C@H]1c1ccc(F)cc1Cl` [Example 103, (R)-methyl 4-(2-chloro-4-fluorophenyl)-6-(((S)-2-(4-(4-methoxyphenoxy)phenyl)-3-oxohexahydroimidazo[1,5-a]pyrazin-7(1H)-yl)methyl)-2-me (thiazol-2-yl)-1,4-dihydropyrimidine-5-carboxylate], the EC50 in data set [1] is 19.4 nM. Also, the CC50 at 4 days in data set [2] is over 150000 nM.

As to `COC(=O)C1=C(CN2CCN3C(=O)N(c4ccc(Oc5ccc(C(=O)NC(C)(C)CO)cc5)cc4)C[C@@H]3C2)NC(c2nccs2)=N[C@H]1c1ccc(F)cc1Cl` [Example 68, (R)-methyl 4-(2-chloro-4-fluorophenyl)-6-(((S)-2-(4-(4-((1-hydroxy-2-methylprop-2-yl)carbamoyl)phenoxy)phenyl)-3-oxohexahydroimidazo[1,5-a]pyrazin-7(1H)-yl)methyl)-2-(thiazol-2-yl)-1,4-dihydropyrimidine-5-carboxylate], in data set [1], the EC50 was found to be 11.1 nM. Moreover, the CC50 at 4 days in data set [2] was over 150000 nM.

Take `COC(=O)C1=C(CN2CCN3C(=O)N(c4ccc(Sc5ccc(C#N)cc5)cc4)C[C@@H]3C2)NC(c2nccs2)=N[C@H]1c1ccc(F)cc1Cl` [Example 98, (R)-methyl 4-(2-chloro-4-fluorophenyl)-6-(((S)-2-(4-((4-cyanophenyl)thio)phenyl)-3-oxohexahydroimidazo[1,5-a]pyrazin-7(1H)-yl)methyl)-2-me (thiazol-2-yl)-1,4-dihydropyrimidine-5-carboxylate]: the EC50 in data set [1] was 11.9 nM. The CC50 at 4 days in data set [2] was over 150000 nM.

`COC(=O)C1=C(CN2CCN3C(=O)N(c4ccc(Oc5ccc(C(=O)N(CCO)CCO)cc5)cc4)C[C@@H]3C2)NC(c2nccs2)=N[C@H]1c1ccc(F)cc1Cl` [Example 64, (R)-methyl 6-(((S)-2-(4-(4-(bis(2-hydroxyethyl)carbamoyl)phenoxy)phenyl)-3-oxohexahydroimidazo[1,5-a]pyrazin-7(1H)-yl)methyl)-4-(2-chloro-4-fluorophenyl)-2-(thiazol-2-yl)-1,4-dihydropyrimidine-5-carboxylate]: the EC50 in data set [1] was found to be 24.9 nM. In data set [2], the CC50 at 4 days is over 150000 nM.

In the case of `COC(=O)C1=C(CN2CCN3C(=O)N(c4ccc(Oc5ccc(C(=O)N6CCC(CO)CC6)cc5)cc4)C[C@@H]3C2)NC(c2nccs2)=N[C@H]1c1ccc(F)cc1Cl` [Example 60, (R)-methyl 4-(2-chloro-4-fluorophenyl)-6-(((S)-2-(4-(4-(4-(hydroxymethyl)piperidine-1-carbonyl)phenoxy)phenyl)-3-oxohexahydroimidazo[1,5-a]pyrazin-7(1H)-yl)methyl)-2-(thiazol-2-yl)-1,4-dihydropyrimidine-5-carboxylate], the EC50 in data set [1] was found to be 32.3 nM. The CC50 at 4 days in data set [2] is over 150000 nM.

As to `COC(=O)C1=C(CN2CCN3C(=O)N(CC#Cc4ccc(CO)cc4)C[C@@H]3C2)NC(c2nccs2)=N[C@H]1c1ccc(F)cc1Cl` [Example 37, (R)-methyl 4-(2-chloro-4-fluorophenyl)-6-(((S)-2-(3-(4-(hydroxymethyl)phenyl)prop-2-yn-1-yl)-3-oxohexahydroimidazo[1,5-a]pyrazin-7(1H)-yl)methyl)-2-(thiazol-2-yl)-1,4-dihydropyrimidine-5-carboxylate], the EC50 in data set [1] turned out to be 12.1 nM. Besides, in data set [2], the half-maximal cytotoxic concentration (CC50) at 4 days was over 150000 nM.

`COC(=O)C1=C(CN2CCN3C(=O)N(c4ccc(N5CCOC(C(=O)O)C5)cc4)C[C@@H]3C2)NC(c2nccs2)=N[C@H]1c1ccc(F)cc1Cl` (stereo partly drawn) [Example 77, 4-(4-((S)-7-(((R)-6-(2-chloro-4-fluorophenyl)-5-(methoxycarbonyl)-2-(thiazol-2-yl)-3,6-dihydropyrimidin-4-yl)methyl)-3-oxohexahydroimidazo[1,5-a]pyrazin-2(3H)-yl)phenyl)morpholine-2-carboxylic acid]: in data set [1], the half-maximal effective concentration (EC50) came to 9.7 nM. The CC50 at 4 days in data set [2] is over 150000 nM.

As for `COC(=O)C1=C(CN2CCN3C(=O)N(c4ccc(Oc5ccc(C(=O)N(CCO)Cc6ccccc6)cc5)cc4)C[C@@H]3C2)NC(c2nccs2)=N[C@H]1c1ccc(F)cc1Cl` [Example 63, (R)-methyl 6-(((S)-2-(4-(4-(benzyl(2-hydroxyethyl)carbamoyl)phenoxy)phenyl)-3-oxohexahydroimidazo[1,5-a]pyrazin-7(1H)-yl)methyl)-4-(2-chloro-4-fluorophenyl)-2-(thiazol-2-yl)-1,4-dihydropyrimidine-5-carboxylate], in data set [1], the EC50 was found to be 27.6 nM. Also, the 50% cytotoxic concentration (CC50) at 4 days in data set [2] was over 150000 nM.

`COC(=O)C1=C(CN2CCN3C(=O)N(c4ccc(Oc5ccc(C(=O)NCCCC(=O)N(C)C)cc5)cc4)C[C@@H]3C2)NC(c2nccs2)=N[C@H]1c1ccc(F)cc1Cl` [Example 71, (R)-methyl 4-(2-chloro-4-fluorophenyl)-6-(((S)-2-(4-(4-((4-(dimethylamino)-4-oxobutyl)carbamoyl)phenoxy)phenyl)-3-oxohexahydroimidazo[1,5-a]pyrazin-7(1H)-yl)methyl)-2-(thiazol-2-yl)-1,4-dihydropyrimidine-5-carboxylate]: the EC50 in data set [1] stood at 16.6 nM. Moreover, in data set [2], the CC50 at 4 days is over 150000 nM.

Take `COC(=O)C1=C(CN2CCN3C(=O)N(c4ccc(N5CCO[C@H](CCC(=O)O)C5)cc4)C[C@@H]3C2)NC(c2nccs2)=N[C@H]1c1ccc(F)cc1Cl` [Example 20, 3-((R)-4-(4-((S)-7-(((R)-6-(2-chloro-4-fluorophenyl)-5-(methoxycarbonyl)-2-(thiazol-2-yl)-3,6-dihydropyrimidin-4-yl)methyl)-3-oxohexahydroimidazo[1,5-a]pyrazin-2(3H)-yl)phenyl)morpholin-2-yl)propionic acid]: in data set [1], the EC50 amounted to 4 nM. Further, in data set [2], the CC50 at 4 days was over 150000 nM.
